From ChEMBL document CHEMBL5113507, “Discovery of potent ebola entry inhibitors with (3S,4aS,8aS)-2-(3-amino-2-hydroxypropyl) decahydroisoquinoline-3-carboxamide scaffold” (Eur J Med Chem, 2022)

Key:
[1] = Cytotoxicity against human Huh-7 cells assessed as reduction in cell viability by cellular ATP method; format: toxicity, cell-based

## CC(C)(C)NC(=O)[C@@H]1C[C@@H]2CCCC[C@@H]2CN1C[C@@H](O)[C@H](Cc1ccccc1)NC(=O)[C@H](CC(N)=O)NC(=O)c1ccc2ccccc2n1
cells
  IC50: 10.5 µM

## CN(C)CCOc1ccc(/C(=C(/CCCl)c2ccccc2)c2ccccc2)cc1 [TOREMIFENE]
[1]
  CC50: 9.31 µM
cells
  IC50: 0.17 µM

## CC(C)(C)NC(=O)[C@@H]1C[C@@H]2CCCC[C@@H]2CN1C[C@H](O)CNCCc1ccc(Cl)cc1
[1]
  CC50: 4.04 µM
